Data as given in US20240139211A1, “METHODS AND COMPOSITIONS FOR TREATING AMYOTROPHIC LATERAL SCLEROSIS” (Amylyx Pharmaceuticals, Inc., priority 2022, published 2024).

Molecular target: T1, OAT1 (Homo sapiens, UniProt Q4U2R8)
T1 sequence (Q4U2R8 1-563): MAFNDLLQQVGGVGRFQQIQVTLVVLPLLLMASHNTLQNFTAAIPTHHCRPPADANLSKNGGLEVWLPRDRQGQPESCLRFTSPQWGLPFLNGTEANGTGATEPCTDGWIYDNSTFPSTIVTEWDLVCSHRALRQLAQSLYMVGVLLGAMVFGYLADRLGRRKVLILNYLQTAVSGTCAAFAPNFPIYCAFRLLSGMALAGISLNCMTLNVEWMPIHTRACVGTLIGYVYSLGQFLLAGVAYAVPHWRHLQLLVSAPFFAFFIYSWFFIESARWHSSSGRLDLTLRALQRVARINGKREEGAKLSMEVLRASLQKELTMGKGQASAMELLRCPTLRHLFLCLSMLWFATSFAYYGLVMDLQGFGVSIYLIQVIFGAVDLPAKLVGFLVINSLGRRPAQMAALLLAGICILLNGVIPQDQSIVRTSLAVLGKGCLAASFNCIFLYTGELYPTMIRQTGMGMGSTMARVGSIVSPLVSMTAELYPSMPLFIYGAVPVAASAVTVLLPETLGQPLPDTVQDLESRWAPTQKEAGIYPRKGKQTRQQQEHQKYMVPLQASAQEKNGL
Assay: OAT1 inhibition, PAH uptake in transfected HEK cells

Substance: tauroursodeoxycholic acid [TUDCA]
- IC50 for in vitro inhibition of human OAT1 (previous study, converted): 0.035 to 0.111 µg/mL
- IC50 (read-out: IC50 for in vitro inhibition of human OAT1, previous study (Example 6)): 74 to 222 nM
